Assay results: ChEMBL document CHEMBL1138138, “Piperazinyl oxime ethers as NK-1 receptor antagonists” (Bioorg Med Chem Lett, 2006)
pKi: −log10 of the molar value.

Legend:
Substance-P receptor [1] = molecular target: T1, Substance-P receptor (Homo sapiens, UniProt P25103); assay: Effect on IP3 turnover by phospholipaseC positively linked to human NK1 receptor expressed in CHO cells; type: functional, cell-based; conditions: read-out: pA2 (converted)
Gerbil, jird = assay: Inhibition of GR-73632 induced foot tapping in po dosed gerbils; type: functional; conditions: Meriones
Substance-P receptor [2] = molecular target: T1, Substance-P receptor; assay: Displacement of [3H] labelled Substance P from cloned human NK1 receptor expressed in CHO cells; type: cell-based

T1 sequence (P25103 whole entry): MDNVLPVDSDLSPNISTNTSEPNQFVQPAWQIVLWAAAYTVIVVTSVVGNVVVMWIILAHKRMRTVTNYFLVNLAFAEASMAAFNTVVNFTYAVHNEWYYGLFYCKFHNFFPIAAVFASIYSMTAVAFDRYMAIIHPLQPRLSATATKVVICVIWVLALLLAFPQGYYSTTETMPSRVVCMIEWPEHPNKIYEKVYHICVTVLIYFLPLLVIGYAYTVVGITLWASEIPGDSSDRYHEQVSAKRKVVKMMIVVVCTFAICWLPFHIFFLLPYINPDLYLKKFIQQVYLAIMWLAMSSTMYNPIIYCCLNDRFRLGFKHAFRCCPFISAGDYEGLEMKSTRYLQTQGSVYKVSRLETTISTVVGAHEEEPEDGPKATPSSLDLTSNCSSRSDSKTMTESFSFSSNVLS

Kb (Substance-P receptor [1]) [nM] | pKi (Substance-P receptor [2]) | SMILES | ED50 (Gerbil, jird) [mg/kg]
1.26 | 9.40 | C/C(CCN1CCN(C(=O)c2cc(C(F)(F)F)cc(C(F)(F)F)c2)[C@H](Cc2c[nH]c3ccccc23)C1)=N/OCCN1CCOCC1 | 2
1 | 9.70 | C/C(CCN1CCN(C(=O)c2cc(C(F)(F)F)cc(C(F)(F)F)c2)[C@H](Cc2c[nH]c3ccccc23)C1)=N/OCCCN1CCOCC1 | 5.5
0.316 | 8.70 | CNCCO/N=C(/C)CN1CCN(C(=O)c2cc(C(F)(F)F)cc(C(F)(F)F)c2)[C@H](Cc2c[nH]c3ccccc23)C1 | > 10
0.794 | 7.90 | O=C(c1cc(C(F)(F)F)cc(C(F)(F)F)c1)N1CCN(Cc2cc(CN3CCOCC3)on2)C[C@H]1Cc1c[nH]c2ccccc12 | 4.6
1.58 | 8.80 | C/C(CN1CCN(C(=O)c2cc(C(F)(F)F)cc(C(F)(F)F)c2)[C@H](Cc2c[nH]c3ccccc23)C1)=N/OCCN1CCN(C)CC1 | > 10
7.94 | 8.40 | CO/N=C(/C)CN1CCN(C(=O)c2cc(C(F)(F)F)cc(C(F)(F)F)c2)[C@H](Cc2c[nH]c3ccccc23)C1 | –
2 | 8.50 | C/C(CN1CCN(C(=O)c2cc(C(F)(F)F)cc(C(F)(F)F)c2)[C@H](Cc2c[nH]c3ccccc23)C1)=N/OCC(C)N1CCOCC1 (stereo not given in full) | 2.6
0.1 | 8.60 | C/C(CN1CCN(C(=O)c2cc(C(F)(F)F)cc(C(F)(F)F)c2)[C@H](Cc2c[nH]c3ccccc23)C1)=N/OCCN1CCS(=O)(=O)CC1 | > 10
0.631 | 8.90 | O=C(c1cc(C(F)(F)F)cc(C(F)(F)F)c1)N1CCN(C/C=N\OCCN2CCOCC2)C[C@H]1Cc1c[nH]c2ccccc12 | 2

Continued, compound first:

SMILES | Kb (Substance-P receptor [1]) [nM] | pKi (Substance-P receptor [2]) | ED50 (Gerbil, jird) [mg/kg]
O=C(c1cc(C(F)(F)F)cc(C(F)(F)F)c1)N1CCN(C/C(=N\OCCN2CCOCC2)c2ccccc2)C[C@H]1Cc1c[nH]c2ccccc12 | 3.16 | 7.70 | –
C/C(CN1CCN(C(=O)c2cc(C(F)(F)F)cc(C(F)(F)F)c2)[C@H](Cc2c[nH]c3ccccc23)C1)=N/OCCCN1CCOCC1 | 0.158 | 7.90 | 7.4
O=C(c1cc(C(F)(F)F)cc(C(F)(F)F)c1)N1CCN(CC/C(=N\OCCN2CCOCC2)c2ccccc2)C[C@H]1Cc1c[nH]c2ccccc12 | 1.26 | 8.00 | > 10
C/C(CN1CCN(C(=O)c2cc(C(F)(F)F)cc(C(F)(F)F)c2)[C@H](Cc2c[nH]c3ccccc23)C1)=N/OCCN1CCOCC1 | 0.158 | 8.00 | 1.3
C/C(CN1CCN(C(=O)c2cc(C(F)(F)F)cc(C(F)(F)F)c2)[C@H](Cc2c[nH]c3ccccc23)C1)=N/OCC(C)(C)N1CCOCC1 | 5.01 | 8.20 | –
O=C(c1cc(C(F)(F)F)cc(C(F)(F)F)c1)N1CCN(C/C=N\OCCCN2CCOCC2)C[C@H]1Cc1c[nH]c2ccccc12 | 0.631 | 8.90 | 2.3
C/C(CN1CCN(C(=O)c2cc(C(F)(F)F)cc(C(F)(F)F)c2)[C@H](Cc2c[nH]c3ccccc23)C1)=N/OCc1ccccn1 | 1.26 | 8.00 | 4.1
O=C(c1cc(C(F)(F)F)cc(C(F)(F)F)c1)N1CCN(CC2=NOC(CN3CCOCC3)C2)C[C@H]1Cc1c[nH]c2ccccc12 (stereo not given in full) | 0.631 | 8.60 | 6.4
O=C(c1cc(C(F)(F)F)cc(C(F)(F)F)c1)N1CCN(C/C(=N\OCCCN2CCOCC2)c2ccccc2)C[C@H]1Cc1c[nH]c2ccccc12 | 1.26 | 8.20 | > 10
C/C(CN1CCN(C(=O)c2cc(C(F)(F)F)cc(C(F)(F)F)c2)[C@H](Cc2c[nH]c3ccccc23)C1)=N/OCCN(C)C | 7.94 | 9.10 | > 10
C/C(CN1CCN(C(=O)c2cc(C(F)(F)F)cc(C(F)(F)F)c2)[C@H](Cc2c[nH]c3ccccc23)C1)=N/OCCN | 0.158 | 9.10 | > 10
C/C(CN1CCN(C(=O)c2cc(C(F)(F)F)cc(C(F)(F)F)c2)[C@H](Cc2c[nH]c3ccccc23)C1)=N/OCCN1CCSCC1 | 1.26 | 8.20 | 10
C/C(CCCN1CCN(C(=O)c2cc(C(F)(F)F)cc(C(F)(F)F)c2)[C@H](Cc2c[nH]c3ccccc23)C1)=N/OCCN1CCOCC1 | 1.58 | 8.90 | 2
COc1ccccc1CNCCNC(=O)N1CCN(C(=O)c2cc(C(F)(F)F)cc(C(F)(F)F)c2)[C@H](Cc2c[nH]c3ccccc23)C1 | 1.26 | – | > 10
